Numbers after ± are expanded uncertainties.
Test: xn = mol fraction of the nth substance listed
Conditions: 101.3 kPa, Liquid; for viscosity: Capillary tube (Ostwald / Ubbelohde) method; for mass density: Pycnometric method

Clc1ccccc1 [chlorobenzene] + CN(C)C=O
Conditions	mass density, 298.15 K [kg/m3]	mass density, 303.15 K [kg/m3]	mass density, 308.15 K [kg/m3]	mass density, 313.15 K [kg/m3]	viscosity, 298.15 K [mPa·s]	viscosity, 303.15 K [mPa·s]	viscosity, 308.15 K [mPa·s]	viscosity, 313.15 K [mPa·s]
x2 = 0	1100.9 ± 0.4	1095.8 ± 0.4	1090.8 ± 0.4	1085.1 ± 0.4	0.756 ± 0.006	0.714 ± 0.006	0.673 ± 0.005	0.635 ± 0.005
x2 = 0.1473	1083.5 ± 0.4	1078.5 ± 0.4	1073.6 ± 0.4	1068.1 ± 0.4	0.79 ± 0.006	0.745 ± 0.006	0.701 ± 0.005	0.661 ± 0.005
x2 = 0.2093	1076.3 ± 0.4	1071.3 ± 0.4	1066.5 ± 0.4	1063.1 ± 4	0.804 ± 0.006	0.757 ± 0.006	0.712 ± 0.006	0.671 ± 0.005
x2 = 0.2762	1068.1 ± 0.4	1063.2 ± 0.4	1058.3 ± 0.4	1052.9 ± 0.4	0.818 ± 0.006	0.77 ± 0.006	0.723 ± 0.006	0.681 ± 0.005
x2 = 0.4032	1051.2 ± 0.4	1046.3 ± 0.4	1041.5 ± 0.4	1036.3 ± 0.4	0.838 ± 0.006	0.788 ± 0.006	0.739 ± 0.006	0.696 ± 0.005
x2 = 0.4661	1042.2 ± 0.4	1037.3 ± 0.4	1032.5 ± 0.4	1027.2 ± 0.4	0.847 ± 0.006	0.795 ± 0.006	0.745 ± 0.006	0.702 ± 0.005
x2 = 0.6084	1020.2 ± 0.4	1015.4 ± 0.4	1010.6 ± 0.4	1005.4 ± 0.4	0.862 ± 0.006	0.808 ± 0.006	0.757 ± 0.006	0.714 ± 0.006
x2 = 0.7009	1003.8 ± 0.4	999.1 ± 0.4	994.5 ± 0.4	989.4 ± 0.4	0.856 ± 0.006	0.803 ± 0.006	0.752 ± 0.006	0.709 ± 0.005
x2 = 0.7842	988.1 ± 0.4	983.4 ± 0.4	978.7 ± 0.4	973.7 ± 0.4	0.846 ± 0.006	0.794 ± 0.006	0.744 ± 0.006	0.702 ± 0.005
x2 = 0.9351	957.7 ± 0.3	953 ± 0.3	948.3 ± 0.4	943.4 ± 0.4	0.818 ± 0.006	0.769 ± 0.006	0.721 ± 0.006	0.683 ± 0.005

Clc1ccccc1 [chlorobenzene] + c1ccccc1
Conditions	mass density, 298.15 K [kg/m3]	mass density, 303.15 K [kg/m3]	mass density, 308.15 K [kg/m3]	mass density, 313.15 K [kg/m3]	viscosity, 298.15 K [mPa·s]	viscosity, 303.15 K [mPa·s]	viscosity, 308.15 K [mPa·s]	viscosity, 313.15 K [mPa·s]
x2 = 0	1100.9 ± 0.4	1095.8 ± 0.4	1090.8 ± 0.4	1085.1 ± 0.4	0.756 ± 0.006	0.714 ± 0.006	0.673 ± 0.005	0.635 ± 0.005
x2 = 0.1206	1076.5 ± 0.4	1071.4 ± 0.4	1066.4 ± 0.4	1060.7 ± 0.4	0.744 ± 0.006	0.699 ± 0.006	0.656 ± 0.005	0.618 ± 0.005
x2 = 0.2642	1046.5 ± 0.4	1041.4 ± 0.4	1036.3 ± 0.4	1030.7 ± 0.4	0.727 ± 0.006	0.682 ± 0.006	0.639 ± 0.005	0.601 ± 0.005
x2 = 0.3982	1017.5 ± 0.4	1012.4 ± 0.4	1007.3 ± 0.4	1001.7 ± 0.5	0.711 ± 0.006	0.667 ± 0.006	0.623 ± 0.005	0.585 ± 0.005
x2 = 0.4644	1002.8 ± 0.4	997.7 ± 0.5	992.6 ± 0.5	987 ± 0.5	0.702 ± 0.006	0.659 ± 0.006	0.616 ± 0.005	0.578 ± 0.005
x2 = 0.5321	987.7 ± 0.5	982.5 ± 0.5	977.3 ± 0.5	971.7 ± 0.5	0.694 ± 0.006	0.65 ± 0.006	0.607 ± 0.005	0.57 ± 0.005
x2 = 0.6074	970.4 ± 0.5	965.2 ± 0.5	960 ± 0.5	954.5 ± 0.5	0.683 ± 0.006	0.64 ± 0.006	0.598 ± 0.005	0.561 ± 0.005
x2 = 0.7069	946.8 ± 0.5	941.6 ± 0.5	936.4 ± 0.5	930.9 ± 0.5	0.665 ± 0.006	0.623 ± 0.006	0.582 ± 0.005	0.545 ± 0.005
x2 = 0.8131	920.9 ± 0.5	915.7 ± 0.5	910.5 ± 0.5	905 ± 0.5	0.643 ± 0.006	0.601 ± 0.005	0.562 ± 0.005	0.527 ± 0.005
x2 = 0.9162	895 ± 0.5	889.8 ± 0.5	884.6 ± 0.5	879.2 ± 0.5	0.621 ± 0.006	0.583 ± 0.005	0.545 ± 0.005	0.512 ± 0.005

CN(C)C=O [dimethylformamide] + c1ccccc1
Conditions	mass density, 298.15 K [kg/m3]	mass density, 303.15 K [kg/m3]	mass density, 308.15 K [kg/m3]	mass density, 313.15 K [kg/m3]	viscosity, 298.15 K [mPa·s]	viscosity, 303.15 K [mPa·s]	viscosity, 308.15 K [mPa·s]	viscosity, 313.15 K [mPa·s]
x1 = 0.1076	881.1 ± 0.5	876 ± 0.5	870.8 ± 0.5	865.4 ± 0.5	0.622 ± 0.006	0.585 ± 0.005	0.547 ± 0.005	0.515 ± 0.005
x1 = 0.2069	888.4 ± 0.5	883.5 ± 0.5	878.4 ± 0.5	873.3 ± 0.5	0.641 ± 0.006	0.603 ± 0.005	0.564 ± 0.005	0.531 ± 0.005
x1 = 0.3124	896.3 ± 0.4	891.4 ± 0.4	886.5 ± 0.4	881.5 ± 0.5	0.662 ± 0.006	0.622 ± 0.006	0.582 ± 0.005	0.549 ± 0.005
x1 = 0.4132	904.2 ± 0.4	899.4 ± 0.4	894.6 ± 0.4	889.6 ± 0.4	0.688 ± 0.006	0.645 ± 0.006	0.602 ± 0.005	0.567 ± 0.005
x1 = 0.5148	911.7 ± 0.4	906.9 ± 0.4	902.2 ± 0.4	897.2 ± 0.4	0.712 ± 0.006	0.67 ± 0.006	0.627 ± 0.005	0.592 ± 0.005
x1 = 0.6145	918.6 ± 0.4	913.7 ± 0.4	908.9 ± 0.4	904 ± 0.4	0.731 ± 0.006	0.688 ± 0.006	0.644 ± 0.005	0.608 ± 0.005
x1 = 0.7093	925 ± 0.4	920.2 ± 0.4	915.4 ± 0.4	910.3 ± 0.4	0.747 ± 0.006	0.703 ± 0.006	0.659 ± 0.005	0.622 ± 0.005
x1 = 0.8084	931.6 ± 0.4	927 ± 0.4	922.2 ± 0.4	917.2 ± 0.4	0.763 ± 0.006	0.718 ± 0.006	0.673 ± 0.005	0.636 ± 0.005
x1 = 0.8998	936.8 ± 0.4	932.1 ± 0.4	927.4 ± 0.4	922.5 ± 0.4	0.78 ± 0.006	0.734 ± 0.006	0.689 ± 0.005	0.651 ± 0.005
x1 = 1	944.5 ± 0.3	939.8 ± 0.3	935.1 ± 0.3	930.2 ± 0.4	0.803 ± 0.006	0.756 ± 0.006	0.71 ± 0.005	0.673 ± 0.005

Source: the NIST ThermoML archive (doi:10.1021/je030130y)
